Among the data in patent publication US20240217983A1, “GPR119 AGONISTS” (Kallyope, Inc., priority 2021, published 2024) are Emax and EC50 values, retold here.

Broadly, the Emax is the greatest response seen or fitted, relative to the assay's reference. One may read the EC50 as the concentration needed to bring the measured effect to its halfway point. The low end stands for an effect from little substance, the high end for a need for much substance.

The experiment concerns the target T1, human GPR119 (hGPR119) (Homo sapiens, UniProt Q8TDV5).
T1 construct: expressed in transfected cells
T1 sequence (Q8TDV5 1-335): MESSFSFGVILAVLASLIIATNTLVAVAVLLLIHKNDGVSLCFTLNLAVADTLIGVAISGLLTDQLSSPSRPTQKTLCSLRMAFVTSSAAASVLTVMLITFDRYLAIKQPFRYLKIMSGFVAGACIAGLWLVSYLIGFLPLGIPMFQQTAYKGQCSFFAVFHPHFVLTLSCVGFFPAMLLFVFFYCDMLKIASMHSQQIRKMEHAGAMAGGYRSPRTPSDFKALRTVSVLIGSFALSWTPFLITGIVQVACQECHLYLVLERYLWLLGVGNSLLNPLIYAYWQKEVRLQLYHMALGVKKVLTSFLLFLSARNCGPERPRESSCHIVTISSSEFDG
The experiment is described as follows: cAMP accumulation assay (Cisbio cAMP Gs dynamic HTRF kit) in CHO-K1 cells stably expressing human GPR119. It is filed as cell-based. Conditions: 4-parameter fit; for Emax: 1 h, % activity normalized to Max and Min controls; for EC50: 60 minutes at 37° C. Here is the method:
CHO-K1 cells stably expressing human GPR119 (hGPR119) were prepared by transfection of a GPR119-carrying plasmid using Lipofectamine 2000 (following manufacturer instructions). A stable cell line was established using the limiting dilution method with geneticine selection. Assay-ready frozen (ARF) cells were prepared and used throughout the study.
The assay was performed in a 384-well plate format using the cAMP Gs dynamic assay kit from Cisbio. ARF cells expressing hGPR119 were thawed, washed and then resuspended in cAMP stimulation buffer at a cell density of 1.1×10^6 cells/mL. Cells were plated at a density of ˜10,000 cells/well (9 μL/well). Dose response curves for the tested compounds were prepared in a cAMP stimulation buffer, containing 0.1% Tween 80 at 4 fold the final concentration. The compounds were then transferred to the cell plates using BRAVO (3 μL/well) and the plates were incubated for 60 minutes at 37° C./5% CO2. Detection buffer (10 μL, prepared as described in the cAMP Gs dynamic kit) were added to each well, and the plates were incubated at ambient temperature for 1 hr.
RT-FRET was measured using a ClarioSTAR plate reader, calculating the ratio between emissions at 665 nm and 620 nm (HTRF ratio). The HTRF ratio for positive (Max) and negative (Min) controls were used to normalize HTRF data and generate values for % activity. EC50 and Max activity values were determined using a standard 4-parameter fit.
For orientation: Changes in cAMP serve as a functional read-out for many G protein-coupled receptors.

Structures can show the parent of a compound that is named as a salt. Where only a bound is given, the exact number is not on record here.

Compound `O=C(CCCCS(=O)(=O)O)N1CC2CC(C1)N2C(=O)Cc1ccc(OCCCC2CCN(c3ncc(Cl)cn3)CC2)cc1F` [Example 16, 5-(6-(2-(4-(3-(1-(5-chloropyrimidin-2-yl)piperidin-4-yl)propoxy)-2-fluorophenyl)acetyl)-3,6-diazabicyclo[3.1.1]heptan-3-yl)-5-oxopentane-1-sulfonic acid] yielded a maximal response (Emax) of 100 to 130% and a half-maximal effective concentration (EC50) of no more than 100 nM.
On to `O=C(CCCCS(=O)(=O)O)N1CCN(C(=O)Cc2ccc(OCCCC3CCN(c4ncc(Cl)cn4)CC3)cc2F)C2CC21` (centres unmarked) [Example 17, 5-(5-(2-(4-(3-(1-(5-chloropyrimidin-2-yl)piperidin-4-yl)propoxy)-2-fluorophenyl)acetyl)-2,5-diazabicyclo[4.1.0]heptan-2-yl)-5-oxopentane-1-sulfonic acid], for which the Emax is 100 to 130% and the EC50 was 100 to 1000 nM.
Turning to `O=C(Cc1ccc(OCCCC2CCN(c3ncc(Cl)cn3)CC2)cc1F)N1CC2(CCCN2C(=O)CCCCS(=O)(=O)O)C1` [Example 18, 5-(2-(2-(4-(3-(1-(5-chloropyrimidin-2-yl)piperidin-4-yl)propoxy)-2-fluorophenyl)acetyl)-2,5-diazaspiro[3.4]octan-5-yl)-5-oxopentane-1-sulfonic acid], the Emax lay within 100 to 130% and the concentration for a half-maximal effect (EC50) is no more than 100 nM.
With `O=C(Cc1ccc(OCCCC2CCN(c3ncc(Cl)cn3)CC2)cc1F)N1CC2(C1)N(C(=O)CCCCS(=O)(=O)O)CC2(F)F` [Example 19, 5-(6-(2-(4-(3-(1-(5-chloropyrimidin-2-yl)piperidin-4-yl)propoxy)-2-fluorophenyl)acetyl)-3,3-difluoro-1,6-diazaspiro[3.3]heptan-1-yl)-5-oxopentane-1-sulfonic acid], the Emax fell in the range of 100 to 130% and the concentration for a half-maximal effect (EC50) was no more than 100 nM.
`O=C(Cc1ccc(OCCCC2CCN(c3ncc(Cl)cn3)CC2)cc1F)N1C[C@H]2CCN(C(=O)CCCCS(=O)(=O)O)[C@H]2C1` [Example 20, 5-((3aR,6aR)-5-(2-(4-(3-(1-(5-chloropyrimidin-2-yl)piperidin-4-yl)propoxy)-2-fluorophenyl)acetyl)hexahydropyrrolo[3,4-b]pyrrol-1(2H)-yl)-5-oxopentane-1-sulfonic acid] yielded a maximum response (Emax) of 100 to 130% and a half-maximal effective concentration (EC50) of no more than 100 nM.
As to `O=C(Cc1ccc(OCCCC2CCN(c3ncc(Cl)cn3)CC2)cc1F)N1CCC2(CC1)CCN2C(=O)CCCCS(=O)(=O)O` [Example 21, 5-(7-(2-(4-(3-(1-(5-chloropyrimidin-2-yl)piperidin-4-yl)propoxy)-2-fluorophenyl)acetyl)-1,7-diazaspiro[3.5]nonan-1-yl)-5-oxopentane-1-sulfonic acid], the maximal effect (Emax) was 100 to 130% and the EC50 is no more than 100 nM.
In turn, `O=C(Cc1ccc(OCCCC2CCN(c3ncc(Cl)cn3)CC2)cc1F)N1CCC2(CC1)CN(C(=O)CCCCS(=O)(=O)O)C2` [Example 22, 5-(7-(2-(4-(3-(1-(5-chloropyrimidin-2-yl)piperidin-4-yl)propoxy)-2-fluorophenyl)acetyl)-2,7-diazaspiro[3.5]nonan-2-yl)-5-oxopentane-1-sulfonic acid] gave a maximum response (Emax) of 100 to 130% and an EC50 of 100 to 1000 nM.
`O=C(CCCCS(=O)(=O)O)N1CCN(C(=O)Cc2ccc(OCCCC3CCN(c4ncc(Cl)cn4)CC3)cc2F)CC1` [Example 23, 5-(4-(2-(4-(3-(1-(5-chloropyrimidin-2-yl)piperidin-4-yl)propoxy)-2-fluorophenyl)acetyl)piperazin-1-yl)-5-oxopentane-1-sulfonic acid] showed an Emax of 100 to 130% and a 50% effective concentration (EC50) of no more than 100 nM.
Regarding `O=C(CCCCS(=O)(=O)O)N1CCOC2(CCN(C(=O)Cc3ccc(OCCCC4CCN(c5ncc(Cl)cn5)CC4)cc3F)C2)C1` (centres unmarked) [Example 24, 5-(2-(2-(4-(3-(1-(5-chloropyrimidin-2-yl)piperidin-4-yl)propoxy)-2-fluorophenyl)acetyl)-6-oxa-2,9-diazaspiro[4.5]decan-9-yl)-5-oxopentane-1-sulfonic acid], the Emax was in the range of 100 to 130% and the EC50 is no more than 100 nM.
The compound `O=C(Cc1ccc(OCCCC2CCN(c3ncc(Cl)cn3)CC2)cc1F)N1CC2(CN(C[C@H](O)[C@H](O)[C@H](O)CO)C2)C1` [Example 25, 2-(4-(3-(1-(5-chloropyrimidin-2-yl)piperidin-4-yl)propoxy)-2-fluorophenyl)-1-(6-((2S,3S,4R)-2,3,4,5-tetrahydroxypentyl)-2,6-diazaspiro[3.3]heptan-2-yl)ethan-1-one formate] yielded an Emax of 50 to 100% and a half-maximal effective concentration (EC50) greater than 10000 nM.
`O=C(Cc1ccc(OCCCC2CCN(c3ncc(Cl)cn3)CC2)cc1F)N1CC2(CN(C[C@H](O)[C@@H](O)[C@H](O)[C@H](O)CO)C2)C1` [Example 26, 2-(4-(3-(1-(5-chloropyrimidin-2-yl)piperidin-4-yl)propoxy)-2-fluorophenyl)-1-(6-((2S,3R,4R,5R)-2,3,4,5,6-pentahydroxyhexyl)-2,6-diazaspiro[3.3]heptan-2-yl)ethan-1-one] showed an Emax of 100 to 130% and an EC50 of no more than 100 nM.
As to `O=C(Cc1ccc(OCCCC2CCN(c3ncc(Cl)cn3)CC2)cc1F)N1CCN(C[C@H](O)[C@@H](O)[C@H](O)[C@H](O)CO)CC1` [Example 27, 2-(4-(3-(1-(5-chloropyrimidin-2-yl)piperidin-4-yl)propoxy)-2-fluorophenyl)-1-(4-((2S,3R,4R,5R)-2,3,4,5,6-pentahydroxyhexyl)piperazin-1-yl)ethan-1-one], the maximum response (Emax) lay within 100 to 130% and the EC50 was no more than 100 nM.
In turn, `O=C(Cc1ccc(OCCCC2CCN(c3ncc(Cl)cn3)CC2)cc1F)N1CCC2(CN(C[C@H](O)[C@H](O)[C@H](O)CO)C2)C1` [Example 28, 2-(4-(3-(1-(5-chloropyrimidin-2-yl)piperidin-4-yl)propoxy)-2-fluorophenyl)-1-(2-((2S,3S,4R)-2,3,4,5-tetrahydroxypentyl)-2,6-diazaspiro[3.4]octan-6-yl)ethan-1-one] registered an Emax of 100 to 130% and an EC50 of no more than 100 nM.
Consider `O=C(Cc1ccc(OCCCC2CCN(c3ncc(Cl)cn3)CC2)cc1F)N1CCC2(CN(C[C@H](O)[C@@H](O)[C@H](O)[C@H](O)CO)C2)C1` [Example 29, 2-(4-(3-(1-(5-chloropyrimidin-2-yl)piperidin-4-yl)propoxy)-2-fluorophenyl)-1-(2-((2S,3R,4R,5R)-2,3,4,5,6-pentahydroxyhexyl)-2,6-diazaspiro[3.4]octan-6-yl)ethan-1-one], for which the maximum response (Emax) lay within 100 to 130% and the concentration for a half-maximal effect (EC50) is no more than 100 nM.
With `O=C(Cc1ccc(OCCCC2CCN(c3ncc(Cl)cn3)CC2)cc1F)N1CCC2(CCN2C[C@H](O)[C@H](O)[C@H](O)CO)C1` (stereo partly drawn) [Example 30, 2-(4-(3-(1-(5-chloropyrimidin-2-yl)piperidin-4-yl)propoxy)-2-fluorophenyl)-1-(1-((2S,3S,4R)-2,3,4,5-tetrahydroxypentyl)-1,6-diazaspiro[3.4]octan-6-yl)ethan-1-one], the Emax lay within 100 to 130% and the EC50 is no more than 100 nM.
The compound `O=C(Cc1ccc(OCCCC2CCN(c3ncc(Cl)cn3)CC2)cc1F)N1CCC2(CCN2C[C@H](O)[C@@H](O)[C@H](O)[C@H](O)CO)C1` (stereo partly drawn) [Example 31, 2-(4-(3-(1-(5-chloropyrimidin-2-yl)piperidin-4-yl)propoxy)-2-fluorophenyl)-1-(1-((2S,3R,4R,5R)-2,3,4,5,6-pentahydroxyhexyl)-1,6-diazaspiro[3.4]octan-6-yl)ethan-1-one] showed an Emax of 100 to 130% and an EC50 of no more than 100 nM.
Consider `O=C(Cc1ccc(OCCCC2CCN(c3ncc(Cl)cn3)CC2)cc1F)N1CC2(CCN2C[C@H](O)[C@H](O)[C@H](O)CO)C1` [Example 32, 2-(4-(3-(1-(5-chloropyrimidin-2-yl)piperidin-4-yl)propoxy)-2-fluorophenyl)-1-(1-((2S,3S,4R)-2,3,4,5-tetrahydroxypentyl)-1,6-diazaspiro[3.3]heptan-6-yl)ethan-1-one], for which the maximum response (Emax) is 100 to 130% and the EC50 was no more than 100 nM.
Compound `O=C(Cc1ccc(OCCCC2CCN(c3ncc(Cl)cn3)CC2)cc1F)N1CC2(CCN2C[C@H](O)[C@@H](O)[C@H](O)[C@H](O)CO)C1` [Example 33, 2-(4-(3-(1-(5-chloropyrimidin-2-yl)piperidin-4-yl)propoxy)-2-fluorophenyl)-1-(1-((2S,3R,4R,5R)-2,3,4,5,6-pentahydroxyhexyl)-1,6-diazaspiro[3.3]heptan-6-yl)ethan-1-one] had an Emax of 100 to 130% and an EC50 of no more than 100 nM.
As for `O=C(Cc1ccc(OCCCC2CCN(c3ncc(Cl)cn3)CC2)cc1F)N1C[C@@H]2CCN(C[C@H](O)[C@H](O)[C@H](O)CO)[C@@H]2C1` [Example 34, 2-(4-(3-(1-(5-chloropyrimidin-2-yl)piperidin-4-yl)propoxy)-2-fluorophenyl)-1-((3aS,6aS)-1-((2S,3S,4R)-2,3,4,5-tetrahydroxypentyl)hexahydropyrrolo[3,4-b]pyrrol-5(1H)-yl)ethan-1-one], the Emax is no less than 130% and the EC50 was no more than 100 nM.
